Reference: US20230073512A1, “MODULATORS OF CULLIN 3 ADAPTOR KBTBD4 AS ANTI-CANCER COMPOUNDS” (UNIVERSITE DE MONTREAL, priority 2019, published 2023)

Test system: AML3
Test: Cell proliferation of cancerous cell lines
Format: cell-based
Conditions: AML3; read-out: Antineoplastic effect of tested compounds on cell proliferation of cancerous AML3 cells, IC50

Row | SMILES | IC50
1 | COC(=O)c1ccc2c(c1)[nH]c1nc(Cc3ccccc3)nc(Nc3cccc(CO)c3)c12 | 2000 to 5000 nM
2 | COC(=O)c1ccc2c(c1)[nH]c1ncnc(NCCN3CCCCC3)c12 | 2000 to 5000 nM
3 | COC(=O)c1ccc2c(c1)[nH]c1ncnc(NCCCN3CCCCC3C)c12 (stereo not drawn) | 2000 to 5000 nM
4 | COC(=O)c1ccc2c3c(N(C)CCCN4CCCCC4)ncnc3n(C)c2c1 | 2000 to 5000 nM
5 | CNCCCNc1ncnc2[nH]c3cc(C(=O)OC)ccc3c12 | 2000 to 5000 nM
6 | COC(=O)c1ccc2c(c1)[nH]c1ncnc(NCC#CCN3CCCCC3)c12 | 2000 to 5000 nM
7 | COC(=O)c1ccc2c(c1)[nH]c1ncnc(NCCCN(C)CCCN)c12 | 2000 to 5000 nM
8 | COC(=O)c1ccc2c(c1)[nH]c1nc(C)nc(NCCCN3CCCCC3)c12 | 2000 to 5000 nM
9 | COC(=O)c1ccc2c(c1)[nH]c1nc(CN(C)C)nc(NCCCN3CCCCC3)c12 | 2000 to 5000 nM
10 | COC(=O)c1ccc2c(c1)[nH]c1ncnc(NCCc3c[nH]c4ccccc34)c12 | 2000 to 5000 nM
11 | COC(=O)c1ccc2c(c1)[nH]c1ncnc(NCC(C)(C)CN)c12 | 2000 to 5000 nM
12 | Cc1nnc(-c2ccc3c(c2)[nH]c2ncnc(NCCCN4CCCCC4)c23)o1 | 2000 to 5000 nM
13 | CCn1nnc(-c2ccc3c(c2)[nH]c2ncnc(NCCCN4CCCCC4)c23)n1 | 2000 to 5000 nM
14 | Cc1nc(-c2ccc3c(c2)[nH]c2ncnc(NCCCN4CCCCC4)c23)no1 | 2000 to 5000 nM
15 | COC(=O)c1ccc2c(c1)[nH]c1nc(Cc3ccccc3)nc(Nc3cccc(NC(C)=O)c3)c12 | 2000 to 5000 nM
16 | COC(=O)c1ccc2c(c1)[nH]c1nc(CCc3ccccc3)nc(NCCCN3CCCCC3)c12 | 2000 to 5000 nM
17 | COC(=O)c1ccc2c(c1)[nH]c1nc(Cc3ccccc3)nc(Nc3cccc(N)c3)c12 | 2000 to 5000 nM
18 | COC(=O)c1ccc2c(c1)[nH]c1ncnc(N[C@H]3CC[C@@H](N)CC3)c12 | 2000 to 5000 nM
19 | c1csc(-c2ccc3c(c2)[nH]c2ncnc(NCCCN4CCCCC4)c23)c1 | 2000 to 5000 nM
20 | c1ccc(-c2ccc3c(c2)[nH]c2ncnc(NCCCN4CCCCC4)c23)cc1 | 2000 to 5000 nM

Row | SMILES | IC50
21 | COC(=O)c1ccc2c(c1)[nH]c1nc(Cc3ccncc3)nc(NCCCN3CCCCC3)c12 | 2000 to 5000 nM
22 | COC(=O)c1ccc2c(c1)[nH]c1ncnc(NC3CCC(N(C)C)CC3)c12 (stereo not drawn) | 2000 to 5000 nM
23 | COC(=O)c1ccc2c(c1)[nH]c1nc(Cc3cccc(F)c3)nc(NCCCN3CCCCC3)c12 | 2000 to 5000 nM
24 | COC(=O)c1ccc2c(c1)[nH]c1nc(Cc3cccc(OC)c3)nc(NCCCN3CCCCC3)c12 | 2000 to 5000 nM
25 | COC(=O)c1ccc2c(c1)[nH]c1nc(Cc3cccs3)nc(NCCCN3CCCCC3)c12 | 2000 to 5000 nM
26 | CCOC(=O)c1ccc2c(c1)[nH]c1nc(Cc3ccccc3)nc(NCCCN3CCCCC3)c12 | 2000 to 5000 nM
27 | COC(=O)c1ccc2c(c1)[nH]c1nc(Cc3ccccn3)nc(NCCCN3CCCCC3)c12 | 2000 to 5000 nM
28 | COC(=O)c1ccc2c(c1)[nH]c1nc(CC3CCCCC3)nc(NCCCN3CCCCC3)c12 | 2000 to 5000 nM
29 | COC(=O)c1cnc2c(c1)[nH]c1nc(C(C)c3ccccc3)nc(NCCCN3CCCCC3)c12 (stereo not drawn) | 2000 to 5000 nM
30 | COC(=O)c1ccc2c(c1)[nH]c1nc(C)nc(NCCCN(C)CCCN)c12 | 2000 to 5000 nM
31 | C#Cc1cccc(Cc2nc(NCCN(C)CCN)c3c(n2)[nH]c2cc(-c4nnn(C)n4)ccc23)c1 | 2000 to 5000 nM
32 | COC(=O)c1ccc2c(c1)[nH]c1nc(Cc3ccccc3)nc(NCCCN3CCOCC3)c12 | 2000 to 5000 nM
33 | Cn1nnc(-c2ccc3c(c2)[nH]c2ncnc(NCCCNC(=O)C(F)(F)F)c23)n1 | 2000 to 5000 nM
34 | COC(=O)c1ccc2c(c1)[nH]c1cc(Cc3cccc(O)c3)nc(NCCCCN3CCCC3)c12 | 1000 to 2000 nM
35 | COC(=O)c1ccc2c(c1)[nH]c1nc(Cc3ccccc3)nc(NCCNC(=O)C(F)F)c12 | 2000 to 5000 nM
36 | COC(=O)c1ccc2c(c1)[nH]c1nc(Cc3ccccc3)nc(NCCCCCCCN)c12 | 1000 to 2000 nM
37 | COC(=O)c1ccc2c(c1)[nH]c1cc(Cc3ccsc3)nc(NCCCN3CCCCC3)c12 | 2000 to 5000 nM
38 | COC(=O)c1ccc2c(c1)[nH]c1nc(Cc3cccnc3)nc(N3CCC(N4CCCC4)CC3)c12 | 2000 to 5000 nM
39 | COC(=O)c1ccc2c(c1)[nH]c1nc(Cc3ccsc3)nc(N[C@H]3CC[C@H](N)CC3)c12 | 1000 to 2000 nM
40 | COC(=O)c1ccc2c(c1)[nH]c1ncnc(NCCCN3CCCCC3)c12 [drawing 45] | 2000 to 5000 nM

The next lines start with the values.

Row | IC50 | SMILES
41 | < 500 nM | COC(=O)c1ccc2c(c1)[nH]c1ncnc(NCc3ccccc3CN(C)C)c12
42 | 500 to 1000 nM | COC(=O)c1ccc2c(c1)[nH]c1nc(Cc3ccccc3)nc(NCCCN(C)CCOCCOCCO)c12
43 | 1000 to 2000 nM | COC(=O)c1ccc2c3c(NCCCN4CCCCC4)ncnc3n(C)c2c1
44 | 1000 to 2000 nM | COC(=O)c1ccc2c(c1)[nH]c1ncnc(NCCCN)c12
45 | 1000 to 2000 nM | COC(=O)c1ccc2c(c1)[nH]c1ncnc(N[C@H]3CC[C@H](N)CC3)c12
46 | 1000 to 2000 nM | COC(=O)c1ccc2c(c1)[nH]c1ccnc(NCCCN3CCCCC3)c12
47 | 1000 to 2000 nM | COC(=O)c1ccc2c(c1)[nH]c1nc(Cc3ccccc3)nc(NCCCN3CCCCC3)c12
48 | 500 to 1000 nM | COC(=O)c1ccc2c(c1)[nH]c1nc(Cc3ccccc3)nc(NCCNC3=NCCC3)c12
49 | < 500 nM | COC(=O)c1ccc2c(c1)[nH]c1nc(Cc3ccccc3)nc(NCCCN(C)CCCNC(=N)N)c12
50 | 500 to 1000 nM | CCCCCc1nc(NCCCN2CCCCC2)c2c(n1)[nH]c1cc(C(=O)OC)ccc12
51 | 500 to 1000 nM | COC(=O)c1ccc2c(c1)[nH]c1nc(Cc3ccc(Br)cc3)nc(NCCCN3CCCCC3)c12
52 | 500 to 1000 nM | Cn1nnc(-c2ccc3c(c2)[nH]c2nc(Cc4ccccc4)nc(NCCCN4CCCCC4)c23)n1
53 | 1000 to 2000 nM | COC(=O)c1ccc2c(c1)[nH]c1nc(Cc3ccccc3C)nc(NCCCN3CCCCC3)c12
54 | 1000 to 2000 nM | COC(=O)c1ccc2c(c1)[nH]c1nc(Cc3ccsc3)nc(NCCCN3CCCCC3)c12
55 | 500 to 1000 nM | Cn1nnc(-c2ccc3c(c2)[nH]c2nc(Cc4ccccc4)nc(N[C@H]4CC[C@H](N(C)C)CC4)c23)n1
56 | 1000 to 2000 nM | CN(CCCN1CCCCC1)c1ncnc2[nH]c3cc(-c4nnn(C)n4)ccc3c12
57 | 500 to 1000 nM | CN(C)CCNc1ncnc2[nH]c3cc(-c4nnn(C)n4)ccc3c12
58 | 500 to 1000 nM | Cn1nnc(-c2ccc3c(c2)[nH]c2ncnc(N[C@H]4CC[C@H](N(C)C)CC4)c23)n1
59 | 1000 to 2000 nM | Cn1nnc(-c2ccc3c(c2)[nH]c2ncnc(NCCCCN4CCCCC4)c23)n1
60 | 1000 to 2000 nM | Cn1nnc(-c2ccc3c(c2)[nH]c2ncnc(NCCCN4CCCC4)c23)n1
61 | 1000 to 2000 nM | CN(C)CCCN(C)c1ncnc2[nH]c3cc(-c4nnn(C)n4)ccc3c12
62 | 1000 to 2000 nM | Cn1nnc(-c2ccc3c(c2)[nH]c2nc(Cc4ccccc4)nc(NCCCCCCCCCCN)c23)n1
63 | 1000 to 2000 nM | COC(=O)c1cnc2c(c1)[nH]c1nc(Cc3ccc4ccccc4c3)nc(NCCCN3CCCCC3)c12
64 | 500 to 1000 nM | COC(=O)c1cnc2c(c1)[nH]c1nc(Cc3ccc4ccccc4c3)nc(N3CCC(N4CCCC4)CC3)c12
65 | < 500 nM | COC(=O)c1cnc2c(c1)Cc1nc(Cc3ccccc3)nc(NCCCN(C)CCCNc3nc(Cc4ccccc4)nc4[nH]c5cc(C(=O)OC)cnc5c34)c1-2
66 | 1000 to 2000 nM | COC(=O)c1ccc2c(c1)[nH]c1cc(Cc3cccc(OC)c3)nc(NCCCCN3CCCC3)c12
67 | 500 to 1000 nM | CNCCNc1nc(Cc2ccccc2)nc2[nH]c3cc(C(=O)OC)ccc3c12
68 | 500 to 1000 nM | COC(=O)c1ccc2c(c1)[nH]c1nc(Cc3ccccc3)nc(NCCCCCN(C)C)c12
69 | 500 to 1000 nM | COC(=O)c1ccc2c(c1)[nH]c1nc(Cc3ccccc3)nc(NCCCCCCN(C)C)c12
